# Data: patent US20140119985A1, “Photodynamic Control of Microbial Growth on Surfaces” (ORTNER CLEANROOM ENGINEERING GMBH, priority 2010, published 2014)
# Where two headings read alike, the source gives them in different places.
# Legend:
# Klebsiella pneumoniae = details: LED 623 nm
# Experimental: (§1) Typically, 3 μl of a growing cell culture having a titer of 7×10^7 cfu/ml were used in contact assays, whereas 50 μl were employed in plating assays. In some assays, the cell cultures were employed in a dilution of 10^−1, 10^−2, 10^−3, 10^−4, and 10^−5, respectively.
# For contact assays, pieces of the textile fabric having a defined size of 1 cm×1 cm were employed.
# (§2) In contact assays, the distance between the radiation source and the piece of textile fabric was in a range between 10 cm and 60 cm.
# In brief, the contact assays were performed as follows: Pieces of a textile fabric (ION-NOSTAT VI.2) having a defined size (1×1 cm) were immersed for 3 h in an aqueous solution of reactive dye, such as methylene blue (100 μg/ml each). After complete drying of the textile pieces, 3 μl of a growing cell culture were added to the surface of the textile pieces. The pieces were irradiated with appropriate radiation (light) for a given period of time. Then, the textile pieces were contacted with agar plates; and the plates were incubated at 37° C. for 24 h.
# The contact assay was performed as described in Example 1 using an aqueous solution of diemethyl methylene blue (DMMB) and new methylene blue (NMB), respectively (100 μg/ml each) as well as a combination thereof. Staphylococcus aureus and Klebsiella pneumoniae were employed as test organisms. Irradiation was accomplished by means of a LED (High Power Alustar 3 W 10° LED×ON Rot, from Conrad, Hirschau, Germany) at a wavelength of 623 nm. The distance between the LED and the textile pieces was 50 cm.
# Staphylococcus aureus [1] = assay: Contact assay on dye-treated textile pieces; assay type: cell-based; details: for cell growth: irradiation 1 min, distance 50 cm, about 10^4 cfu; for cfu calculated per ml cell culture: plates incubated 24 h; for number of colonies upon irradiation: distance 30 cm
# Candida albicans [2] = details: dilution 10^−4, incubation period two days longer as compared to control
# Experimental: as §1
# (§3) Methylene blue (MB), dimethyl methylene blue (DMMB), new metylene blue (NMB), and toluidine blue (TB) were provided as solutions having a dye concentration of 100 μg/ml. 50 μl of either solution were used for plating assays.
# (§4) In brief, the plating assays were performed as follows: In a well of a (96 well) microtiter plate 50 μl of a growing cell culture were mixed with aqueous solution of reactive dye, such as methylene blue (100 μg/ml each). The samples were irradiated with appropriate radiation (light) for a given period of time. The samples (100 μl) were plated on agar plates. The plates were incubated at 37° C. for 24 h.
# Staphylococcus aureus [3] = details: for colony forming units obtained: incubation with dye (3-5 min) without irradiation; for colonies detected: irradiation 3 min
# [4] = system: Stenotrophomonas maltophilia; assay: Contact assay on dye-treated textile pieces; assay type: cell-based; details: for cfu calculated per ml cell culture: plates incubated 48 h
# Experimental: as §1
# (§5) The textile fabric employed was a clean room textile, in particular ION-NOSTAT VI.2 (Dastex Reinraumzubehör, Muggensturm, Germany). For contact assays, pieces of the textile fabric having a defined size of 1 cm×1 cm were employed.
# as §2
# (§6) After complete drying of the textile pieces, 3 μl of a growing cell culture were added to the surface of the textile pieces. The pieces were irradiated with appropriate radiation (light) for a given period of time. Then, the textile pieces were contacted with agar plates; and the plates were incubated at 37° C. for 24 h.
# Candida albicans [5] = assay: Contact assay on dye-treated textile pieces; assay type: cell-based; details: irradiation 1 min, 2 min, 3 min, laser 15 mW, 532 nm
# Experimental: as §1, §5, §2, §6
# [6] = system: Stenotrophomonas maltophilia; details: dilution 10^−5
# Experimental: as §1, §3, §4
# [7] = black light lamp, irradiation for 30 s
# [8] = black light lamp, irradiation for 3 min
# [9] = mercury lamp, irradiation for 30 s
# [10] = mercury lamp, irradiation for 3 min
# [11] = incubation with dye, mercury lamp 515-560 nm
# [12] = 1 × pre-irradiation (3 min) of textile before contact with cells
# [13] = 2 × pre-irradiation (3 min each, 90 min between) of textile before contact with cells
# [14] = Control (dye, no irrad.), dilution 10^−5
# [15] = Irradiation for 3 min, dilution 10^−5
# [16] = irradiation 3 min, laser 15 mW, 532 nm
# [17] = textile immersed in dye 100 μg/ml, irradiation 3 min, laser 15 mW, 532 nm
# [18] = textile incubated with dye 100 μg/ml, no irradiation
smiles,measurement,setting,value
"Cc1cc(N(C)C)cc2[s+]c3cc(N(C)C)cc(C)c3nc12.[Cl-] [dimethyl methylene blue, 3,7-bis(dimethylamino)-1,9-dimethyldiphenothiazin-5-ium chloride]",dye released from stained textile pieces,"single immersion with acetone, acetic acid, and ethanol, data not shown",Trace amounts
same,dye released from stained textile pieces,"two cycles of immersion in 99% acetone, 99% acetic acid, 1 M NaOH, 99% ethanol, stained with 100 mg/l",No dye
same,inhibition of cell growth,Klebsiella pneumoniae; about 10^4 cfu,significant inhibition of cell growth
same,cell numbers,Klebsiella pneumoniae; after 5 min of irradiation,noticeable reduction of cell numbers
same,reduction of cell numbers,Klebsiella pneumoniae; irradiation period of 10 min,further increase
same,cell growth,Staphylococcus aureus [1]; LED 623 nm,no cell growth could be detected
"CN(C)c1ccc2nc3ccc(N(C)C)cc3[s+]c2c1.[Cl-] [methylene blue, 3,7-bis(dimethylamino)-phenothiazin-5-ium chloride]",cfu per ml,Candida albicans [2]; [7],2.7 × 10^7 cfu/ml*
same,cfu per ml,Candida albicans [2]; [8],2.3 × 10^7 cfu/ml*
same,cfu per ml,Candida albicans [2]; [9],2.3 × 10^7 cfu/ml*
same,cfu per ml,Candida albicans [2]; [10],2.2 × 10^7 cfu/ml*
same,cfu per ml,"Staphylococcus aureus [3]; black light lamp, irradiation for 30 s, dilution 10^−5",1.2 × 10^8 cfu/ml
same,cfu per ml,"Staphylococcus aureus [3]; black light lamp, irradiation for 3 min, dilution 10^−5",1.5 × 10^7 cfu/ml
same,colony forming units obtained,Staphylococcus aureus [3],177 cfu
same,colonies detected,Staphylococcus aureus [3]; [11],one colony
same,cfu per ml,"Staphylococcus aureus [3]; irradiation 2 min with LED1, 620-640 nm, dilution 10^−5",1.2×10^7 cfu/ml
same,cfu per ml,"Staphylococcus aureus [3]; irradiation 2 min with LED2, 620-640 nm, dilution 10^−5",2.0×10^6 cfu/ml
same,colonies detected,"Staphylococcus aureus [3]; black light lamp 350-370 nm, dilution 10^−5",15
same,colonies detected,"Staphylococcus aureus [3]; mercury lamp 515-560 nm, dilution 10^−5",No colonies
same,cfu per ml,"Staphylococcus aureus [3]; mercury lamp, irradiation for 30 s, dilution 10^−5",2.1 × 10^7 cfu/ml
same,cfu per ml,"Staphylococcus aureus [3]; mercury lamp, irradiation for 3 min, dilution 10^−5",1.0 × 10^5 cfu/ml
same,cfu calculated per ml cell culture,[4]; [12],1.0 × 10^5 cfu/ml
same,cfu calculated per ml cell culture,[4]; [13],1.0 × 10^5 cfu/ml
same,cfu calculated per ml cell culture,[4]; [14],1.1 × 10^8 cfu/ml
same,cfu calculated per ml cell culture,[4]; [15],1.0 × 10^5 cfu/ml
same,growth inhibition,[4]; [16],almost complete
same,colonies (cfu) after contact sampling,[4]; [17],two colonies
same,growth after contact sampling without irradiation,[4]; [18],lawn of bacteria
same,microbial growth upon irradiation,Candida albicans [5],significant reduction of microbial growth
same,cfu calculated per ml cell culture,Staphylococcus aureus [1]; [12],0 cfu/ml
same,cfu calculated per ml cell culture,Staphylococcus aureus [1]; [13],0 cfu/ml
same,cfu calculated per ml cell culture,Staphylococcus aureus [1]; [14],1.7 × 10^8 cfu/ml
same,cfu calculated per ml cell culture,Staphylococcus aureus [1]; [15],0 cfu/ml
same,number of colonies upon irradiation,"Staphylococcus aureus [1]; irradiation 2 min with LED1, 620-640 nm",significant reduction of the number of colonies
same,number of colonies upon irradiation,"Staphylococcus aureus [1]; irradiation 2 min with LED2, 620-640 nm",significant reduction of the number of colonies
same,growth inhibition,Staphylococcus aureus [1]; [16],complete
same,colonies (cfu) after contact sampling,Staphylococcus aureus [1]; [17],no colonies
same,growth after contact sampling without irradiation,Staphylococcus aureus [1]; [18],lawn of bacteria
same,cfu per ml,[6]; [7],2.9 × 10^7 cfu/ml
same,cfu per ml,[6]; [8],0 cfu/ml
same,cfu per ml,[6]; [9],1.4 × 10^7 cfu/ml
same,cfu per ml,[6]; [10],0 cfu/ml
"CCNc1cc2[s+]c3cc(NCC)c(C)cc3nc2cc1C.[Cl-] [new methylene blue, 3,7-bis(ethylamino)-2,8-dimethylphenaza-thionium chloride]",cell growth,Staphylococcus aureus [1]; LED 623 nm,only a small reduction of cell growth
same,reduction of cell growth,"Staphylococcus aureus [1]; LED 623 nm, irradiation for 2 min and 5 min, data not shown",more than 50%
Cc1cc2nc3ccc(=[N+](C)C)cc-3sc2cc1N.[Cl-] [toluidine blue],colony forming units obtained,Staphylococcus aureus [3],89 cfu
same,colonies detected,Staphylococcus aureus [3]; [11],no colony
same,cfu calculated per ml cell culture,Staphylococcus aureus [1]; [12],9.0 × 10^4 cfu/ml
same,cfu calculated per ml cell culture,Staphylococcus aureus [1]; [13],5.0 × 10^4 cfu/ml
same,cfu calculated per ml cell culture,Staphylococcus aureus [1]; [14],8.9 × 10^6 cfu/ml
same,cfu calculated per ml cell culture,Staphylococcus aureus [1]; [15],0 cfu/ml
